The values below come from patent US11766470B2, “Manufacture, formulation and dosing of apraglutide” (VectivBio AG, priority 2020, dated 2023).

The conditions of series [1]: as compared with human GLP-2 and other GLP-2 analogues; cited from earlier work.
Series [2] deals with T1, hGLP-2 receptor (Homo sapiens, UniProt O95838).
T1 construct: expressed in transfected cells; host or cells: HEK-293 (human embryonic kidney), transient transfection
T1 sequence (O95838 1-553): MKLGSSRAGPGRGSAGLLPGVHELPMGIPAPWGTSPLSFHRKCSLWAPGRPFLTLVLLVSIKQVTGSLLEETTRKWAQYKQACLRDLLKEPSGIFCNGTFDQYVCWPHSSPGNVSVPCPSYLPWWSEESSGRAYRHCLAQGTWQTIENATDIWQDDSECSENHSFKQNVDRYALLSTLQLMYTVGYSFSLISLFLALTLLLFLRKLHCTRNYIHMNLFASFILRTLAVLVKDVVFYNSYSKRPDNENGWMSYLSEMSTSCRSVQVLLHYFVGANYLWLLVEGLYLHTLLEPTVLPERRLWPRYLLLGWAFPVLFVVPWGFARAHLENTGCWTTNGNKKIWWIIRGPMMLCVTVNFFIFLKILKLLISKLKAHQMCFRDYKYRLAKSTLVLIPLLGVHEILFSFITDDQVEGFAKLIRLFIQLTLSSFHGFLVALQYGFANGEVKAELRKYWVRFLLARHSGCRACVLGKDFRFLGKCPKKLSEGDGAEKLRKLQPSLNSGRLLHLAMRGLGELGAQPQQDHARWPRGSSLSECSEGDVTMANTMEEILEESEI
Kind of series: hGLP-2 receptor transcriptional reporter gene assay (cAMP-responsive luciferase) in HEK-293 cells (Example 2). It is filed as cell-based. The text has this: To determine activities of GLP-2 agonists of the present disclosure on the hGLP-2 receptor, a transcriptional reporter gene assay is used. Two constructs are transiently transfected into a human embryonic kidney cell line (HEK-293): an hGLP-2 receptor expression DNA construct and a reporter DNA construct containing intracellular cAMP-responsive promoter elements regulating expression of firefly luciferase. (See for example HimmLer et al., J. Recept. Res., (1993), 13, […] for further guidance on this assay.)
Cells are exposed for 5 hours to serial dilutions of compounds diluted half-log per dose. After exposure to compounds, cells are lysed, luciferase activity is determined, and compound efficacies and EC50 values are determined by non-linear regression analysis. hGLP-2, a naturally occurring 33-amino acid peptide ligand, is used as an internal control in each experiment.
On the technique in general: In a reporter assay the amount or activity of a reporter protein is the signal.

Square brackets hold non-standard residues; d marks the D form. Peptide text beside a SMILES is read from it. ξ: configuration not given here. Ile(3ξ) = CCC(C)[C@H](N)C(=O)O; Thr(3ξ) = CC(O)[C@H](N)C(=O)O; Nle = CCCC[C@H](N)C(=O)O

Consider `CCCC[C@H](NC(=O)[C@H](CCC(=O)O)NC(=O)[C@H](CC(=O)O)NC(=O)[C@H](CO)NC(=O)[C@H](Cc1ccccc1)NC(=O)[C@H](CO)NC(=O)CNC(=O)[C@H](CC(=O)O)NC(=O)CNC(=O)[C@@H](N)Cc1c[nH]cn1)C(=O)N[C@H](Cc1ccccc1)C(=O)N[C@H](C(=O)N[C@H](C(=O)N[C@@H](CC(C)C)C(=O)N[C@@H](CC(=O)O)C(=O)N[C@@H](CC(C)C)C(=O)N[C@@H](CC(C)C)C(=O)N[C@@H](C)C(=O)N[C@@H](C)C(=O)N[C@@H](CCCNC(=N)N)C(=O)N[C@@H](CC(=O)O)C(=O)N[C@@H](Cc1ccccc1)C(=O)N[C@H](C(=O)N[C@@H](CC(N)=O)C(=O)N[C@@H](Cc1c[nH]c2ccccc12)C(=O)N[C@@H](CC(C)C)C(=O)N[C@H](C(=O)N[C@@H](CCC(N)=O)C(=O)N[C@H](C(=O)N[C@@H](CCCCN)C(=O)N[C@H](C(=O)N[C@H](C(=O)N[C@@H](CC(=O)O)C(N)=O)C(C)O)C(C)CC)C(C)O)C(C)CC)C(C)CC)C(C)CC)C(C)O` (stereo partly drawn) [apraglutide, L-histidyl-glycyl-L-aspartyl-glycyl-L-seryl-L-phenylalanyl-L-seryl-L-aspartyl-L-glutamyl-L-norleucyl-D-phenylalanyl-L-threonyl-Lisoleucyl-L-leucyl-L-aspartyl-L-leucyl-L-leucyl-L-alanyl-L-alanyl-L-arginyl-L-aspartyl-L-phenylalanyl-L-isoleucyl-L-asparaginyl-Ltryptophanyl-L-leucyl-L-isoleucyl-L-glutaminyl-L-threonyl-L-lysyl-L-isoleucyl-L-threonyl-Laspartic acid amide] (H-HGDGSFSDE[Nle][dF][Thr(3ξ)][Ile(3ξ)]LDLLAARDF[Ile(3ξ)]NWL[Ile(3ξ)]Q[Thr(3ξ)]K[Ile(3ξ)][Thr(3ξ)]D-NH2), for which the half-life result in series [1] was “at least 30 hours”. For the same molecule, the “Agonist activity, potency and selectivity at the GLP-2 receptor, in words” value in series [2] was “selective, full agonist of the GLP-2 receptor with potency and selectivity comparable to native GLP-2”.
